Where “and” joins values, the source holds several entries; their conditions need not be identical. Identical values can stand only once.
How the values were obtained:
[1] = biological target: T1, ER α-glucosidase II (GANAB) (Homo sapiens, UniProt Q14697); assay: in vitro apparent IC50, GANAB in fibroblast lysates, 4-MU-α-D-glucopyranoside; assay type: biochemical; conditions: for IC50: apparent IC50, Pompe disease fibroblast lysates, pH 7.0, mean ± SD
T1 construct: GANAB (from Pompe Disease Fibroblast Lysates); endogenous in cells; host or cells: human fibroblasts (lysate)
T1 sequence (Q14697 29-944): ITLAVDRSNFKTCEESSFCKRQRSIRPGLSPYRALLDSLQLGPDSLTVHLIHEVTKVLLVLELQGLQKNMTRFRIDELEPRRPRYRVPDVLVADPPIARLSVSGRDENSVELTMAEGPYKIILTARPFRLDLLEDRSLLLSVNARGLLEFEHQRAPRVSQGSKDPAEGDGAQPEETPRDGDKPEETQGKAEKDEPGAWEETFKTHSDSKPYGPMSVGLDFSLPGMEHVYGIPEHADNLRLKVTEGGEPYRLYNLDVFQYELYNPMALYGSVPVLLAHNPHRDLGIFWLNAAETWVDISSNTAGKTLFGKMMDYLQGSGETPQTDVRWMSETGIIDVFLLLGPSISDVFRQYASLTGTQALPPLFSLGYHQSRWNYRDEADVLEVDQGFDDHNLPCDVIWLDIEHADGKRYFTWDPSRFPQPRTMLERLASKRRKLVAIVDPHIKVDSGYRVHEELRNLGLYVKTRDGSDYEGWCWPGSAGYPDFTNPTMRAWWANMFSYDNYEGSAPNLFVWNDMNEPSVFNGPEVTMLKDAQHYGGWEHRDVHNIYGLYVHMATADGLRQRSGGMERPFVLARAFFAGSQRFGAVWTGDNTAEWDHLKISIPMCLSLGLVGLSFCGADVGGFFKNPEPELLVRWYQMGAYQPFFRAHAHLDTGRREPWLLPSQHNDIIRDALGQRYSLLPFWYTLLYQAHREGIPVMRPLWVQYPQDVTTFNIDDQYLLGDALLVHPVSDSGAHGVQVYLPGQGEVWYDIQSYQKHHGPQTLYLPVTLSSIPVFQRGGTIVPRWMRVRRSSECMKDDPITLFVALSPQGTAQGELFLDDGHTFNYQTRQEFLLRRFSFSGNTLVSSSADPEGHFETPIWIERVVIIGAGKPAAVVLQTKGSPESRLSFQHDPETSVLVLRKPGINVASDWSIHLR
T1 sequence (P14314 15-528 partner): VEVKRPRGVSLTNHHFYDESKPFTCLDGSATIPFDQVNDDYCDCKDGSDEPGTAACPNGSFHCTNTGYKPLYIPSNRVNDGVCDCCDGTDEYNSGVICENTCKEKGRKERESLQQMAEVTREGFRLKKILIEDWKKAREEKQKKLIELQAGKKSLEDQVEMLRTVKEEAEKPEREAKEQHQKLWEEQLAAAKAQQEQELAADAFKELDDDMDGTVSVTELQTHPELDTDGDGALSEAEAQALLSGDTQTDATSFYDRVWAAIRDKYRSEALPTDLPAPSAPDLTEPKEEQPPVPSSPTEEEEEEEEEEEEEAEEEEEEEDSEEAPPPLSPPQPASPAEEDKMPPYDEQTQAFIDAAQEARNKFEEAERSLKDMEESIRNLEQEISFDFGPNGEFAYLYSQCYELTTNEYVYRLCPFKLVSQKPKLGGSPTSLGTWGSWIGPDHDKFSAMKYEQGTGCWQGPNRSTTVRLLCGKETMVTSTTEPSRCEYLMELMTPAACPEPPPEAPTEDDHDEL

[2] = biological target: T2, β-glucosidase GBA1 (Cerezyme) (Homo sapiens, UniProt P04062, R534H); assay: in vitro apparent IC50, GBA1 (Cerezyme), 4-MU-β-D-glucopyranoside; assay type: biochemical; conditions: pH 5.2, mean ± SD, read-out: in vitro GBA IC50
T2 construct: purchased
T2 sequence (P04062 40-536 R534H): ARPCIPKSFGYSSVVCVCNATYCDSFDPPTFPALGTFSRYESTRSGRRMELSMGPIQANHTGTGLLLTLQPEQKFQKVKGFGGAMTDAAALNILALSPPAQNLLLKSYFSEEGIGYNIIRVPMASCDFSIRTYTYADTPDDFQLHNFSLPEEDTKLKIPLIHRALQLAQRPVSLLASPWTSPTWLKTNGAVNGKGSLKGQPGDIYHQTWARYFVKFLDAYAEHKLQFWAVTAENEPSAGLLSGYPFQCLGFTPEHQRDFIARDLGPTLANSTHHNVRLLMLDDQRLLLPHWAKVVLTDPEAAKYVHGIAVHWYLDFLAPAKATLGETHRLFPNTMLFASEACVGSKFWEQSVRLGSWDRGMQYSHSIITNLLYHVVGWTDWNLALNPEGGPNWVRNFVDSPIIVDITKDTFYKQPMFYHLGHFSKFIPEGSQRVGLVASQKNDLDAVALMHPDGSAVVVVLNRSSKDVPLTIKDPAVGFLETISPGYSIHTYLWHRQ

[3] = biological target: T3, β-glucosidase GBA2 (Homo sapiens, UniProt Q9HCG7); assay: in vitro apparent IC50, GBA2-overexpressing HEK293T lysate; assay type: biochemical; conditions: for IC50: apparent IC50, pH 5.8, mean ± SD
T3 construct: expressed in transfected cells; host or cells: HEK293T
T3 sequence (Q9HCG7 1-927): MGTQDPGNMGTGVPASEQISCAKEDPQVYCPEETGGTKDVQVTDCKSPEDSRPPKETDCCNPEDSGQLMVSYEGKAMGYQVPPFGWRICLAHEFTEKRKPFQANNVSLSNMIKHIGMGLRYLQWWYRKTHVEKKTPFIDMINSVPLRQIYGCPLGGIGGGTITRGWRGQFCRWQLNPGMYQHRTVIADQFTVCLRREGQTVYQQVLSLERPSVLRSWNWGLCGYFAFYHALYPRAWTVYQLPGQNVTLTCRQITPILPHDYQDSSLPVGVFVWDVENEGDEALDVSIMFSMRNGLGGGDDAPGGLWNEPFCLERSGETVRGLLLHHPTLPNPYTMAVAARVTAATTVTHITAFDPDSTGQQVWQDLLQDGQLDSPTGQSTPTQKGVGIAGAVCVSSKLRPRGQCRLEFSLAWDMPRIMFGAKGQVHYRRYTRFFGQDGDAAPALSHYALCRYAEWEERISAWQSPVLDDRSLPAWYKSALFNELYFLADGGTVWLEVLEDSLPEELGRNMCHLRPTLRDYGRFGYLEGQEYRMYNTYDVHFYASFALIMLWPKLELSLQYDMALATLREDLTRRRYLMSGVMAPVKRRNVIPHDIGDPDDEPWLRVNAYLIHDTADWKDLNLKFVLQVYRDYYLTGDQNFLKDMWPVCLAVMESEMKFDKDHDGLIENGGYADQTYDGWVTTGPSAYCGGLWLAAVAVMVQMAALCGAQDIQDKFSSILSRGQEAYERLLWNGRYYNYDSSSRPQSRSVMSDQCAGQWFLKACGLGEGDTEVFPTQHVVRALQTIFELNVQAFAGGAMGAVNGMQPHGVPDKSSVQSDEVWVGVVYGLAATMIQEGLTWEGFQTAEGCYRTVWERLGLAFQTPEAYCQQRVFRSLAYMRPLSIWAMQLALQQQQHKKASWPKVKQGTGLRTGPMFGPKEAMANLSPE

[4] = biological target: α-glucosidase GAA (Myozyme) (Homo sapiens, UniProt P10253); assay: in vitro apparent IC50, GAA (Myozyme), 4-MU-α-D-glucopyranoside; assay type: biochemical; design: purchased Sanofi Genzyme; conditions: Myozyme 47 nM, pH 4.0, 30 min preincubation, mean ± SD
[5] = biological target: T4, glucosylceramide synthase (GCS) (Mus musculus, UniProt O88693); assay: in situ cell inhibition of GCS in RAW 264.7 cells, glucosylation of C6-NBD-ceramide; assay type: cell-based; conditions: mean ± SD
T4 construct: endogenous in cells; host or cells: RAW 264.7
T4 sequence (O88693 1-394): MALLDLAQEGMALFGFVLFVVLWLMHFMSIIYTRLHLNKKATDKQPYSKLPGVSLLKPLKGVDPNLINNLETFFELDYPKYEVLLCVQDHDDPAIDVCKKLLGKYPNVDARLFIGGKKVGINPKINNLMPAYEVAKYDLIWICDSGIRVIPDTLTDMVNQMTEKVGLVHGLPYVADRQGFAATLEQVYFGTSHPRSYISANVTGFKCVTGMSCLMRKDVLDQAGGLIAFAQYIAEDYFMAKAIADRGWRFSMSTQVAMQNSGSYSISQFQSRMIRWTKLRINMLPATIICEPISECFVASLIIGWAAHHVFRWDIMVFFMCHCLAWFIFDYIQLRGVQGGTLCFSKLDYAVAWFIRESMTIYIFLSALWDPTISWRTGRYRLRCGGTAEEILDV

| IC50 [1] [µM] | IC50 [2] | inhibition at 500 µM ([3]; at 500 μM) [%] | IC50 [4] [µM] | activity toward GANAB, in words [1] | IC50 [3] [µM] | IC50 [5] [µM] | SMILES |
| --- | --- | --- | --- | --- | --- | --- | --- |
| 0.026 | > 500 µM | 62 | 0.048 |  |  |  | O=S1(=O)O[C@@H]2[C@H](O)[C@@H](O)[C@H](O)[C@@H](CO)[C@@H]2O1 [compound 3, 1,6-epi-cyclophellitol cyclosulfate, reference compound] |
| > 500 | > 500 µM |  | 485 ± 146 | inactive | 393 ± 93.7 |  | CN1[C@@H]2[C@H](O)[C@@H](O)[C@H](O)[C@@H](CO)[C@@H]2OS1(=O)=O [compound 5] |
| 132 ± 11.8 | 93 µM and 93.4 µM |  | > 1000 |  | 652 ± 87.3 | > 50 | CN1[C@H]2[C@H](CO)[C@@H](O)[C@H](O)[C@@H](O)[C@H]2OS1(=O)=O [compound 7] |
| > 500 | > 500 µM |  | > 500 |  | > 500 | > 50 | O=S1(=O)N[C@@H]2[C@H](O)[C@@H](O)[C@H](O)[C@@H](CO)[C@@H]2N1 [compound 8] |

Source: publication PMC9389588, “1,6-epi-Cyclophellitol Cyclosulfamidate Is a Bona Fide Lysosomal α-Glucosidase Stabilizer for the Treatment of Pompe Disease” (Journal of the American Chemical Society, 2022)
